From paper PMC5640650, “NatD promotes lung cancer progression by preventing histone H4 serine phosphorylation to activate Slug expression” (Nature Communications, 2017)

Test system: H1299 cells
Experiment: qPCR and western blot of EMT and proliferation genes, H1299 cells
Assay type: cell-based, human
Description: Fig. 4 Silencing NatD suppresses cancer cell EMT by downregulating Slug. a Representative phase contrast images of Scr and NatD-KD H1299 cells treated with TGF-β1. Data are representative of three independent experiments. Scale bar, 100 μm. b Quantitative real-time PCR analysis of mRNA levels of indicated key EMT-related genes in Scr and NatD-KD H1299 cells normalized to GAPDH in the absence or presence of TGF-β1. Results are shown as mean ± s.d. of three independent experiments. Two-tailed Student’s t-test was used. **P < 0.01 or *P < 0.05 compared with the indicated control. c Western blot analysis of indicated protein levels in Scr and NatD-KD H1299 cells in the absence or presence of TGF-β1. GAPDH served as a loading control. Data are representative of three independent experiments. d Immunofluorescence analysis of Scr and NatD-KD H1299 cells in the absence or presence of TGF-β1 stained for E-cadherin and N-cadherin. Data are representative of three independent experiments. Scale bar, 20 μm. Migration (e, top) and invasion (f, top) of Scr cells, NatD-KD cells, and NatD-KD cells with enforced Slug expression (NatD-KD + Slug). (bottom panels) Cells were counted in at least four random microscope fields (×100 magnification) for the corresponding assays; migration and invasion are expressed as a percentage of control. Results are shown as mean ± s.d. of three independent experiments. Two-tailed Student’s t-test was used. **P < 0.01 compared with the indicated control. g Quantitative real-time PCR analysis of the mRNA levels of NatD and indicated key EMT-related genes (normalized to GAPDH) in Scr cells, NatD-KD cells, and NatD-KD + Slug cells. Results are shown as mean ± s.d. of three independent experiments. Two-tailed Student’s t-test was used. **P < 0.01 or *P < 0.05 compared with Scr or indicated control. h Western blot analysis of indicated protein levels in Scr cells, NatD-KD cells, and NatD-KD + Slug cells. GAPDH served as a loading control. Data are representative of three independent blots. i Pearson correlation scatter plot of the H score of Slug and NatD in human lung carcinoma (n = 147); r = 0.6672, P < 0.0001
Cellular proteins were extracted by RIPA lysis buffer at high salt concentration (420 mM NaCl), and western blot analysis was performed in accordance with standard protocols. Scans of enhanced chemiluminescence (ECL) films showing uncropped blots are presented in Supplementary Fig. 10. The following antibodies were used for western blotting: NatD (Abcam; ab106408, 1:1000), GAPDH (MBL International; M171-3, 1:5000), Vimentin (BD Biosciences; 550513, 1:1000), E-cadherin (BD Biosciencs; 610181, 1:1000), N-cadherin (Abcam; ab76057, 1:1000), Slug (Abcam; ab27568, 1:500), Zeb1 (ABclonal; A5600, 1:1000), Zeb2 (Abcam; ab138222, 1:500), Twist1 (ABclonal; A7314, 1:1000), Snail (Santa Cruz Biotechnology; sc-271977, 1:500), Histone H4 (PTM Biolabs; PTM-1004, 1:2000), Histone H3(Genscript; A01502, 1:1000), H4K5ac (Millipore; CS204381, 1:1000), H4K8ac (Millipore; CS204357, 1:1000), H4K12ac (Millipore; 06-1352, 1:1000), H4R3me2a (Active Motif; 39705, 1:1000), H4R3me2s (Abcam; ab5823, 1:1000), H4S1ph (Abcam; ab14723, 1:1000), CK2α (Abcam; ab70774, 1:2000), Lamin A/C (Genscript; A01455, 1:2000), and Hsp70 (Genscript; A01236, 1:1000). Peptide pulldown assays were performed according to standard protocols, [44]. Briefly, we coupled streptavidin beads to 2 μg C-terminal biotin-tagged 31-mer N-terminal peptides of histone H4 and to acetylated H4 (Nt-ac-H4), as well as to C-terminal biotin-tagged 20-mer N-terminal peptides of non-acetylated histone H3. The resulting streptavidin-coupled peptides were incubated with H1299 cellular extracts prepared with high salt extraction (420 mM NaCl). We eluted specifically bound protein from stringently washed beads, separated the samples by SDS-PAGE, and visualized proteins by western blot with anti-CK2α antibody. […]

NatD-KD2: Human NatD shRNA KD2: 5′-GGTTGAATGTCTCCATTGA-3′, lentiviral (shRNA lentiviral)
expression of E-cadherin (basal, knockdown vs Scr): increased the expression
expression of N-cadherin and Vimentin (basal, knockdown vs Scr): reduced the expression
expression of Slug (basal, knockdown vs Scr): significantly repressed
expression of Twist1, Snail, Zeb1, or Zeb2 (basal, knockdown vs Scr): not changed
changes of E-cadherin, N-cadherin, Vimentin and Slug expression with TGF-β1 (presence of TGF-β1 relative to basal): blocked changes of expression levels
expression of proliferation- and cell cycle-related genes (except CCND2) (qPCR, vs Scr): did not affect
